How the values were obtained:
Assay type in all cases: cell-based
IKZF3 = target: T1, IKZF3 (Homo sapiens, UniProt Q96SW2+Q9UKT9); assay: Western-blot assay, substrate protein degradation in hPBMCs: IKZF3; settings: for substrate protein remaining % IKZF3: 24 hours of compound treatment, 50 nM and 500 nM
T1 construct: effects of the compounds of the present disclosure on the expression of target proteins in cells; endogenous in cells; host or cells: human PBMCs (hPBMCs)

WEE1 = target: T2, WEE1 (Homo sapiens, UniProt P30291+Q96SW2); assay: Western-blot assay, substrate protein degradation in hPBMCs: WEE1; settings: for substrate protein remaining % WEE1: 24 hours of compound treatment, 50 nM and 500 nM
T2 construct: effects of the compounds of the present disclosure on the expression of target proteins in cells; endogenous in cells; host or cells: human PBMCs (hPBMCs)
T2 sequence (P30291 whole entry): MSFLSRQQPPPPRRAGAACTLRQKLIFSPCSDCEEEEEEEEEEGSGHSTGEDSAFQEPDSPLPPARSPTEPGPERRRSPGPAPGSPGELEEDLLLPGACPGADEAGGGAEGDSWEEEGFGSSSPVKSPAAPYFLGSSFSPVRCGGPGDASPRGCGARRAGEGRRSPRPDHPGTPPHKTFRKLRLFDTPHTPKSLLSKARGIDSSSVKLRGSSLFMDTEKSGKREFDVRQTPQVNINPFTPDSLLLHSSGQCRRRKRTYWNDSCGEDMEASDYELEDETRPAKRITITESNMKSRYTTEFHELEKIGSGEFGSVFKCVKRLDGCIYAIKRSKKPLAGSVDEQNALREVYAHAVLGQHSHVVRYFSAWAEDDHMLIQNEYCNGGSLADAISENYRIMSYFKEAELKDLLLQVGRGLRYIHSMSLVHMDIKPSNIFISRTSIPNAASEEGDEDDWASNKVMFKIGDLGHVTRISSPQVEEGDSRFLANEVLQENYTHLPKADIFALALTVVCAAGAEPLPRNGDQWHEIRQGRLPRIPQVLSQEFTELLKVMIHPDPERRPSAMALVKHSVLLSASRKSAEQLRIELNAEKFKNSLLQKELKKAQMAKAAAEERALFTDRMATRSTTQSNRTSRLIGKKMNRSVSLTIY
T2 sequence (Q96SW2 whole entry): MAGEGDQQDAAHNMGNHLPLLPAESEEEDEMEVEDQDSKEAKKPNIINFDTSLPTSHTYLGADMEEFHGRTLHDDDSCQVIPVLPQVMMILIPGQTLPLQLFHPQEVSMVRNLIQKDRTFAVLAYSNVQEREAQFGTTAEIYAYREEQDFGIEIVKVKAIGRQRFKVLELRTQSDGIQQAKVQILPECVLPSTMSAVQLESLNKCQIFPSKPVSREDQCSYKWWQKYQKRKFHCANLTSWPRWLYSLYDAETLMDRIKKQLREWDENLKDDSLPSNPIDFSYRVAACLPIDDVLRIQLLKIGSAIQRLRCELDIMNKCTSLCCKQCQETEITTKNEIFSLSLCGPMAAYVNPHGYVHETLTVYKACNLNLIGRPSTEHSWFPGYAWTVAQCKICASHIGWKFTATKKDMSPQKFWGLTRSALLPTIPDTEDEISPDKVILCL
T2 sequence (Q16531 whole entry partner): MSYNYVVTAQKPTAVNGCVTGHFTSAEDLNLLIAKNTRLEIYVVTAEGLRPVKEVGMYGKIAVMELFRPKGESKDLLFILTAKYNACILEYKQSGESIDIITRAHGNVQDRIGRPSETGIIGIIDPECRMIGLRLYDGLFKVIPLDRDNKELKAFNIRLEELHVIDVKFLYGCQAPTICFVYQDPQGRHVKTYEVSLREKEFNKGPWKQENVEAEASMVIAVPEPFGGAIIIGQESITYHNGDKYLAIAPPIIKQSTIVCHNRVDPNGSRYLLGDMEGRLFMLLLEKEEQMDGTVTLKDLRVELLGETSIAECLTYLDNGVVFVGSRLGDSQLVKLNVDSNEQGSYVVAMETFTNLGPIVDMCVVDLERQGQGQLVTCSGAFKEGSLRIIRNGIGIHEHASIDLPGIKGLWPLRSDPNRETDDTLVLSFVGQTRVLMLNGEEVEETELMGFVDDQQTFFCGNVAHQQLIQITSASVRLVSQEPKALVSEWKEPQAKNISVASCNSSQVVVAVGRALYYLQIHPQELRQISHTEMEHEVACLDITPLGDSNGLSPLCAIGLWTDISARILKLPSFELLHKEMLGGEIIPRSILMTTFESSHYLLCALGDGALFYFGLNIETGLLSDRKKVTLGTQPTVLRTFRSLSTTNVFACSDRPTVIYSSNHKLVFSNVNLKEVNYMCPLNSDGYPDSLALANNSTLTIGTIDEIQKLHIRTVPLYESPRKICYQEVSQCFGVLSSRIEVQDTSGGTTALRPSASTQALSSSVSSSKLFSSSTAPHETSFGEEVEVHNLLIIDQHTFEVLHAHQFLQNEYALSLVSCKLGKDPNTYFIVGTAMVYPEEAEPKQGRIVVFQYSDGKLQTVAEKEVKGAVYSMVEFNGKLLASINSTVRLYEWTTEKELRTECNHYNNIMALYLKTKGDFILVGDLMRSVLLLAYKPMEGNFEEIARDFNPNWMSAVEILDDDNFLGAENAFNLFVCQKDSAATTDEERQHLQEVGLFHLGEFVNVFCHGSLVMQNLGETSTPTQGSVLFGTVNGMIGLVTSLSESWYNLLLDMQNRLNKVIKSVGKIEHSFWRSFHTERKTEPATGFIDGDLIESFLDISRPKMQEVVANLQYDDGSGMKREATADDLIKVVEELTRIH

IKZF1 = target: T3, IKZF1 (Homo sapiens, UniProt Q13422+Q96SW2); assay: Western-blot assay, substrate protein degradation in hPBMCs: IKZF1; settings: for substrate protein remaining % IKZF1: 24 hours of compound treatment, 50 nM and 500 nM
T3 construct: effects of the compounds of the present disclosure on the expression of target proteins in cells; endogenous in cells; host or cells: human PBMCs (hPBMCs)
T3 sequence (Q13422 whole entry): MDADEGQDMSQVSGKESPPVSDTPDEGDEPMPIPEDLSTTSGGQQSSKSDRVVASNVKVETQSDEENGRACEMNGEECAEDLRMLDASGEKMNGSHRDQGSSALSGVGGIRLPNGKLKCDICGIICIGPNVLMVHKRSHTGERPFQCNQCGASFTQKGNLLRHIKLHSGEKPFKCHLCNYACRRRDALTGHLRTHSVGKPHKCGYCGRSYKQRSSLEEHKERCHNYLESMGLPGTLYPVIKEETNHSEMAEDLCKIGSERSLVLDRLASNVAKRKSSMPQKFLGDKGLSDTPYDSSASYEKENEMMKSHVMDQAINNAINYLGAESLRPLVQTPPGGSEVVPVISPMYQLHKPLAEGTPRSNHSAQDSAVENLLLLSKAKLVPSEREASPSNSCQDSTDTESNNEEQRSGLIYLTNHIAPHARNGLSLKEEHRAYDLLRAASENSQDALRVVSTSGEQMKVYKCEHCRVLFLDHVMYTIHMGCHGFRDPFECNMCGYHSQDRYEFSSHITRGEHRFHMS
T3 sequence (Q96SW2 whole entry): as the sequence (Q96SW2 whole entry) above
T3 sequence (Q16531 whole entry partner): as the sequence (Q16531 whole entry partner) above

IKZF2 = target: T4, IKZF2 (Homo sapiens, UniProt Q96SW2+Q9UKS7); assay: Western-blot assay, substrate protein degradation in hPBMCs: IKZF2; settings: for substrate protein remaining % IKZF2: 24 hours of compound treatment, 50 nM and 500 nM
T4 construct: effects of the compounds of the present disclosure on the expression of target proteins in cells; endogenous in cells; host or cells: human PBMCs (hPBMCs)
T4 sequence (Q9UKS7 whole entry): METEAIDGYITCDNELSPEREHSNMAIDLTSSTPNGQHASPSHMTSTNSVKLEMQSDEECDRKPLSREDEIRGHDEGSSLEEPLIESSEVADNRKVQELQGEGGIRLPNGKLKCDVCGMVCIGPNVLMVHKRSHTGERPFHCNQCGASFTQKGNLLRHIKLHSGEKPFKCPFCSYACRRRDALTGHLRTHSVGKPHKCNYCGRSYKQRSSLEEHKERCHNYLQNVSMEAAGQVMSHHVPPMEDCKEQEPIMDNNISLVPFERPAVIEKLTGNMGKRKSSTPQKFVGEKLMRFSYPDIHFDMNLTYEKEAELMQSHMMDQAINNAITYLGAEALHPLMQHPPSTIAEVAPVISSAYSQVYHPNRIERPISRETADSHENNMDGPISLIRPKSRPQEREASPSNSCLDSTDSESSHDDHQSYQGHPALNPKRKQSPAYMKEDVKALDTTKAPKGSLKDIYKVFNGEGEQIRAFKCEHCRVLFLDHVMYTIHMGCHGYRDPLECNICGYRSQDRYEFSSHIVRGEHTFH
T4 sequence (Q96SW2 whole entry): as the sequence (Q96SW2 whole entry) above
T4 sequence (Q16531 whole entry partner): as the sequence (Q16531 whole entry partner) above

GSPT1 = target: T5, GSPT1 (Homo sapiens, UniProt P15170+Q96SW2); assay: Western-blot assay, substrate protein degradation in hPBMCs: GSPT1; settings: for substrate protein remaining % GSPT1: 24 hours of compound treatment, 50 nM and 500 nM
T5 construct: effects of the compounds of the present disclosure on the expression of target proteins in cells; endogenous in cells; host or cells: human PBMCs (hPBMCs)
T5 sequence (P15170 whole entry): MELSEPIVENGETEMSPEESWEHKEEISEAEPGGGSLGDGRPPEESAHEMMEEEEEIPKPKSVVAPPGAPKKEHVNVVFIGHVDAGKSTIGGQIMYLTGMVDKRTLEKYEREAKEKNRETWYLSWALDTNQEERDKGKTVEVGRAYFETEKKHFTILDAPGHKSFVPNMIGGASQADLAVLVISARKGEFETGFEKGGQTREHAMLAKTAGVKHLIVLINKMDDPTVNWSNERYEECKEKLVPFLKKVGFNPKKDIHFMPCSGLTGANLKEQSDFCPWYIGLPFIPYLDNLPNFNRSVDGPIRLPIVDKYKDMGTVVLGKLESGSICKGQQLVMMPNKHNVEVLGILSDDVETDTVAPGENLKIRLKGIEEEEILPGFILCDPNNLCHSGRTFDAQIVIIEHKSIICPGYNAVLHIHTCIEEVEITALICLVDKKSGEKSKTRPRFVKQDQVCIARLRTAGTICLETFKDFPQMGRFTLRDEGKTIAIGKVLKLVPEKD
T5 sequence (Q96SW2 whole entry): as the sequence (Q96SW2 whole entry) above
T5 sequence (Q16531 whole entry partner): as the sequence (Q16531 whole entry partner) above

CK1α = target: T6, CK1α (Homo sapiens, UniProt P48729+Q96SW2); assay: Western-blot assay, substrate protein degradation in hPBMCs: CK1α; settings: for substrate protein remaining % CK1α: 24 hours of compound treatment, 50 nM and 500 nM
T6 construct: effects of the compounds of the present disclosure on the expression of target proteins in cells; endogenous in cells; host or cells: human PBMCs (hPBMCs)
T6 sequence (P48729 whole entry): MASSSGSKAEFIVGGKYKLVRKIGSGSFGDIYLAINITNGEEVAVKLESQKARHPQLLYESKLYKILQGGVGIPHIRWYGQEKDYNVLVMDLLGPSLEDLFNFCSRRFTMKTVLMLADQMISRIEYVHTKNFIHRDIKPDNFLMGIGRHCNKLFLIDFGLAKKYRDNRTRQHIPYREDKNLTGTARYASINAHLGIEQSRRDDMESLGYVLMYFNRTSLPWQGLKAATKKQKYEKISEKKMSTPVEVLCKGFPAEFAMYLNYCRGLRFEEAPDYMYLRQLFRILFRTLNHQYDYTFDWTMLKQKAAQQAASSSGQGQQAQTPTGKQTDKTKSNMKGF
T6 sequence (Q96SW2 whole entry): as the sequence (Q96SW2 whole entry) above
T6 sequence (Q16531 whole entry partner): as the sequence (Q16531 whole entry partner) above

[1] = compounds at 50 nM and 500 nM, 24 hours

Row | SMILES | substrate protein remaining % IKZF3 (IKZF3) | substrate protein remaining % WEE1 (WEE1) | substrate protein remaining % IKZF1 (IKZF1) | substrate protein remaining % IKZF2 (IKZF2) | substrate protein remaining % GSPT1 (GSPT1) | substrate protein remaining % CK1α (CK1α) | IKZF3 substrate protein remaining % (IKZF3; [1]) | WEE1 substrate protein remaining % (WEE1; [1]) | IKZF1 substrate protein remaining % (IKZF1; [1]) | IKZF2 substrate protein remaining % (IKZF2; [1]) | GSPT1 substrate protein remaining % (GSPT1; [1]) | CK1α substrate protein remaining % (CK1α; [1])
1 | O=C1CCN(N2C(=O)c3ccc(CN4CC=C(c5cncc(Cl)c5)CC4)cc3C2=O)C(=O)N1 [GT-07491, 5-((5-chloro-3',6'-dihydro-[3,4'-bipyridin]-1'(2'H)-yl)methyl)-2-(2,4-dioxotetrahydropyrimidin-1(2H)-yl)isoindoline-1,3-dione] | B (80%< substrate protein remaining %≤ 100%) | A (0% ≤ substrate protein remaining % ≤ 80%) | B (80%< substrate protein remaining %≤ 100%) | B (80%< substrate protein remaining %≤ 100%) | A (0% ≤ substrate protein remaining % ≤ 80%) | B (80%< substrate protein remaining %≤ 100%) | – | – | – | – | – | –
2 | O=C1CCN(N2C(=O)c3ccc(CN4CC5CCC4CN5c4cccc(Cl)c4Cl)cc3C2=O)C(=O)N1 (stereo not drawn) [GT-07436, 5-((5-(2,3-dichlorophenyl)-2,5-diazabicyclo[2.2.2]octan-2-yl)methyl)-2-(2,4-dioxotetrahydropyrimidin-1(2H)-yl)isoindoline-1,3-dione] | B (80%< substrate protein remaining %≤ 100%) | B (80%< substrate protein remaining %≤ 100%) | B (80%< substrate protein remaining %≤ 100%) | A (0% ≤ substrate protein remaining % ≤ 80%) | B (80%< substrate protein remaining %≤ 100%) | A (0% ≤ substrate protein remaining % ≤ 80%) | – | – | – | – | – | –
3 | CC1(C)CCC(CN2C3CC2CN(Cc2ccc4c(c2)CN(N2CCC(=O)NC2=O)C4=O)C3)=C(c2ccc(Cl)cc2)C1 [GT-06458, 1-(5-((6-((4'-chloro-5,5-dimethyl-3,4,5,6-tetrahydro-[1,1'-biphenyl]-2-yl)methyl)-3,6-diazabicyclo[3.1.1]heptan-3-yl)methyl)-1-oxoisoindolin-2-yl)dihydropyrimidine-2,4(1H,3H)-dione] | – | – | – | – | – | – | A ("A" is defined as 0% ≤ substrate protein remaining % ≤ 80%) | A ("A" is defined as 0% ≤ substrate protein remaining % ≤ 80%) | A ("A" is defined as 0% ≤ substrate protein remaining % ≤ 80%) | A ("A" is defined as 0% ≤ substrate protein remaining % ≤ 80%) | A ("A" is defined as 0% ≤ substrate protein remaining % ≤ 80%) | A ("A" is defined as 0% ≤ substrate protein remaining % ≤ 80%)
4 | O=C1CCN(N2C(=O)c3ccc(CN4CCC(n5c(=O)[nH]c6cc(F)ccc65)CC4)cc3C2=O)C(=O)N1 [GT-07583, 2-(2,4-dioxotetrahydropyrimidin-1(2H)-yl)-5-((4-(5-fluoro-2-oxo-2,3-dihydro-1H-benzo[d]imidazol-1-yl)piperidin-1-yl)methyl)isoindoline-1,3-dione] | B (80%< substrate protein remaining %≤ 100%) | A (0% ≤ substrate protein remaining % ≤ 80%) | B (80%< substrate protein remaining %≤ 100%) | B (80%< substrate protein remaining %≤ 100%) | A (0% ≤ substrate protein remaining % ≤ 80%) | B (80%< substrate protein remaining %≤ 100%) | – | – | – | – | – | –
5 | O=C1CCN(N2C(=O)c3ccc(CN4CCCN(c5cccc(Cl)c5Cl)CC4)cc3C2=O)C(=O)N1 [GT-07439, 5-((4-(2,3-dichlorophenyl)-1,4-diazepan-1-yl)methyl)-2-(2,4-dioxotetrahydropyrimidin-1(2H)-yl)isoindoline-1,3-dione] | B (80%< substrate protein remaining %≤ 100%) | B (80%< substrate protein remaining %≤ 100%) | B (80%< substrate protein remaining %≤ 100%) | B (80%< substrate protein remaining %≤ 100%) | A (0% ≤ substrate protein remaining % ≤ 80%) | A (0% ≤ substrate protein remaining % ≤ 80%) | – | – | – | – | – | –

Reference: patent EP4722207A1, “OXOISOINDOLINYL-SUBSTITUTED TETRAHYDROPYRIMIDINEDIONE DERIVATIVE AND USE THEREOF” (Gluetacs Therapeutics (Shanghai) Co., Ltd., priority 2023, dated 2024)
